Assay results from patent publication US20230332232A1, “COMPOSITIONS AND METHODS FOR DIAGNOSING AND TREATING A DYSTONIA” (Duke University, priority 2020, published 2023).

Tested on: wild-type (WT) murine embryonic fibroblasts (MEFs)
Test: Untargeted LC/MS/MS proteomics of EVs from WT MEFs exposed 24 hours to drug, compared with untreated WT MEFs
Format: cell-based, mouse
Conditions: for direction of modulated EV protein expression: WT cells
Method: Methods for isolation and purification of exosomes and extracellular vesicles (EV) were extensively reviewed. Experiments were performed to arrive at a robust and reproducible protocol. The protocol used herein is that set forth in Théry et al, 2006, which is incorporated by reference for it teaching of this protocol. This protocol involves depleting serum-derived EVs from cell culture media by overnight ultracentrifugation and exchanging media for 1% FBS EV-depleted media. Media is then collected from cells following a 24-hour conditioning period and EVs are isolated by 18-hour ultracentrifugation at 100,000 g (FIG. 1A).
EVs were isolated from media of cultured murine embryonic fibroblasts (MEFs) prepared in-house according to protocols described by Xu 2005 from DYT1 knockin mice (Tor1a^delGAG/+) (Goodchild R E, et al. (2005) Neuron. 48:923-932) and littermate wild-type (WT) controls. The cultured MEFs from the DYT1 mice were exposed for 24 hours to Ritonavir (RTV) while the MEFs from WT mice were exposed to vehicle, ISRIB, or Salubrinal (SAL). The EVs isolated from these WT cells and DYT1 were characterized by untargeted proteomics and RNA-seq to identify differentially expressed proteins and RNAs as candidate biomarkers. Experimenter and Proteomics core staff were blinded to genotype of cell cultures throughout preparation and analysis phases. EV isolation was confirmed by Western immunoblot documenting presence of the exosomal marker (TSG101) and absence of the endoplasmic reticulum (ER) marker (CANX) (FIG. 1B (Cohort 1) and FIG. 1C (Cohort 2)).
Following the bicinchoninic acid assay (BCA) analysis and Western immunoblot of a portion of samples for QC, 11.6 μg-129.2 μg of EV protein lysates in RIPA buffer were sent to the Duke Proteomics and Metabolomics Shared Resource core facility for LC/MS/MS quantitative proteomic analysis. Samples were first normalized to 20 μg and spiked with undigested casein at a total of 40 fmol/μg, 80 fmol/μg, or 160 fmol/μg, then reduced with 10 mM dithiolthreitol for 30 minute at 80° C. and alkylated with 20 mM iodoacetamide for 30 minutes at room temperature. Next, the samples were supplemented with a final concentration of 1.2% phosphoric acid and 741 μL of S-Trap (Protifi) binding buffer (90% MeOH/100 mM […]). Proteins were trapped on the S-Trap, digested using 20 ng/μL sequencing grade trypsin (Promega) for 1 hour at 47° C., and eluted using 50 mM TEAB, followed by 0.2% FA, and lastly using 50% CAN/0.2% FA. All samples were then lyophilized to dryness and resuspended in 40 μL 1% TFA/2% acetonitrile containing 12.5 fmol/μL yeast alcohol dehydrogenase (ADH_YEAST). A QC Pool was created from 3 uL of each sample. All QC Pools were run periodically throughout the acquisition period.
Quantitative LC/MS/MS was performed on 2 μL of each sample, using a nanoAcquity UPLC system (Waters Corp) coupled to a Thermo Orbitrap Fusion Lumos high resolution accurate mass tandem mass spectrometer (Thermo) via a nanoelectrospray ionization source. Briefly, the sample was first trapped on a Symmetry C18 20 mm×180 μm trapping column (5 μL/min at 99.9/0.1 v/v water/acetonitrile), after which the analytical separation was performed using a 1.8 μm Acquity HSS T3 C18 75 μm×250 mm column (Waters Corp.) with a 90 minute linear gradient of 5% to 30% acetonitrile with 0.1% formic acid at a flow rate of 400 nanoliters/minute (nL/min) with a column temperature of 55° C. Data collection on the Fusion Lumos mass spectrometer was performed in a data-dependent acquisition (DDA) mode of acquisition with a r=120,000 (@ m/z 200) full MS scan from m/z 375-1500 with a target AGC value of 2e5 ions. MS/MS scans were acquired at Rapid scan rate (Ion Trap) with an AGC target of 5e3 ions and a max injection time of 100 ms. The total cycle time for MS and MS/MS scans was 2 seconds. A 20 second dynamic exclusion was employed to increase depth of coverage. The total analysis cycle time for each sample injection was approximately 2 hours. […]

[1] = EV protein Prep, Prolyl endopeptidase
[2] = EV protein Protein transport protein Sec31A
[3] = EV protein Q8BPB5, EGF-containing fibulin-like ECM protein 1
[4] = EV protein Q8C878, NEDD8-activating enzyme E1 catalytic subunit
[5] = EV protein Q8R081, Heterogeneous nuclear ribonucleoprotein 1
[6] = EV protein Q9D1M4, Eukaryotic translation EF1 epsilon-1
[7] = EV protein Q62261, Spectrin beta chain, non-crythrocytic 1
[8] = EV protein Q89051, Integral membrane protein 2B
[9] = EV protein Regulator of nonsense transcripts 1

O=C(COc1ccc(Cl)cc1)NC1CCC(NC(=O)COc2ccc(Cl)cc2)CC1 (stereo not drawn) [ISRIB]
ISRIBvWT Z Score (EV protein P27612, Phospholipase A-2-activating protein): −2.39 | ISRIB Direction Same as dE? (EV protein P48678, Prelamin-): yes | ISRIBvWT Z Score (EV protein P48678, Prelamin-): −0.19 | ISRIBvWT Z Score (EV protein P61089, Ubiquitin-conjugating enzyme): 0.41 | ISRIBvWT Z Score (EV protein Pdia4 (P08003)): 1.37 | ISRIBvWT Z Score (EV protein Penk (P22005)): −0.11 | ISRIBvWT Z Score (EV protein Plaa P27612): −2.39 | ISRIBvWT Z Score (EV protein Pld3 (Q35405)): 1.18 | ISRIB Direction Same as dE? [1]: yes | ISRIBvWT Z Score [1]: −1.11 | ISRIB Direction Same as dE? [2]: yes | ISRIBvWT Z Score [2]: −1.34 | ISRIB Direction Same as dE? (EV protein Prpf8 (Q99PV0)): yes | ISRIBvWT Z Score (EV protein Prpf8 (Q99PV0)): −0.01 | ISRIB Direction Same as dE? (EV protein Psmd1 (Q3TXS7)): yes | ISRIBvWT Z Score (EV protein Psmd1 (Q3TXS7)): −0.65 | ISRIBvWT Z Score (EV protein Pura (P42669)): 0.52 | ISRIBvWT Z Score (EV protein Q6X893, Choline transporter-like protein 1): 0.80 | ISRIBvWT Z Score (EV protein Q8BL97, Serine arginine-rich splicing factor 7): 0.13 | ISRIB Direction Same as dE? [3]: yes | ISRIBvWT Z Score [3]: 0.07 | ISRIB Direction Same as dE? [4]: yes | ISRIBvWT Z Score [4]: −1.68 | ISRIBvWT Z Score (EV protein Q8C878 NEDD8-activating enzyme .. subunit): −1.68 | ISRIB Direction Same as dE? [5]: yes | ISRIBvWT Z Score [5]: −0.32 | ISRIB Direction Same as dE? [6]: yes | ISRIBvWT Z Score [6]: −3.65 | ISRIBvWT Z Score (EV protein Q9FS30, Complement C1q tumor necrosis factor-related protein 3): −0.18 | ISRIBvWT Z Score (EV protein Q9Z1Z0, General vesicular transport factor p115): 2.44 | ISRIBvWT Z Score (EV protein Q9Z2X1 Heterogeneous nuclear ribonucleoprotein E): −0.18 | ISRIBvWT Z Score (EV protein Q78ZA7, Nucelosome assembly protein 1-like 4): 2.43 | ISRIBvWT Z Score (EV protein Q99KJ8 Dynactin subunit 2): 0.53 | ISRIBvWT Z Score (EV protein Q922B2 Aspartate--tRNA ligase): −1.13 | ISRIBvWT Z Score (EV protein Q01405 Protein transport protein .. 23A): −0.95 | ISRIBvWT Z Score (EV protein Q60751, Insulin-like growth factor 1 receptor): 0.75 | ISRIB Direction Same as dE? [7]: yes | ISRIBvWT Z Score [7]: −0.82 | ISRIB Direction Same as dE? [8]: yes | ISRIBvWT Z Score [8]: −2.13 | ISRIB Direction Same as dE? (EV protein Qars (Q8BML9)): yes | ISRIBvWT Z Score (EV protein Qars (Q8BML9)): −2.14 | ISRIBvWT Z Score (EV protein Rab6a (P35279)): 0.44 | ISRIB Direction Same as dE? (EV protein Rbbp4 (Q60972)): yes | ISRIBvWT Z Score (EV protein Rbbp4 (Q60972)): −1.73 | ISRIB Direction Same as dE? [9]: yes | ISRIBvWT Z Score [9]: −1.84 | ISRIBvWT Z Score (EV protein Rpl22 (P67984)): 2.38 | ISRIBvWT Z Score (EV protein S100a11 (P50543)): 0.33 | ISRIBvWT Z Score (EV protein Scarb2 (Q35114)): 0.09 | ISRIB Direction Same as dE? (EV protein Sec23a (Q01405)): yes | ISRIBvWT Z Score (EV protein Sec23a (Q01405)): −0.95 | ISRIB Direction Same as dE? (EV protein Shmt2 (Q9CZN7)): yes | ISRIBvWT Z Score (EV protein Shmt2 (Q9CZN7)): −1.44 | ISRIBvWT Z Score (EV protein Shrnt2 Q9CZN7): −1.44 | ISRIB Direction Same as dE? (EV protein Spp1 (P10923)): yes | ISRIBvWT Z Score (EV protein Spp1 (P10923)): 2.67 | ISRIB Direction Same as dE? (EV protein Sptan1 (P16546)): yes | ISRIBvWT Z Score (EV protein Sptan1 (P16546)): −0.40 | ISRIBvWT Z Score (EV protein Ssb (P32067)): 0.41 | ISRIB Direction Same as dE? (EV protein Ssbp1 (Q9CYR0)): yes | ISRIBvWT Z Score (EV protein Ssbp1 (Q9CYR0)): −1.49 | ISRIBvWT Z Score (EV protein Svep1 (A2A0A0)): −0.50 | ISRIB Direction Same as dE? (EV protein Tars (Q9D0R2)): yes | ISRIBvWT Z Score (EV protein Tars (Q9D0R2)): −1.16 | ISRIBvWT Z Score (EV protein Tra2b (P62996)): 0.54 | ISRIBvWT Z Score (EV protein Vapa (Q9WV55)): 3.18 | direction of modulated EV protein expression (RTV Therapeutic Efficacy with ISRIB Insensitivity subset, 33 proteins): in the opposite direction of DYT1 genotype-dependent direction | direction of modulated EV protein expression (RTV Therapeutic Efficacy with ISRIB Sensitivity subset, 121 proteins): modulated expression in a predicted pathological direction
